Results on one compound are retold here after patent publication US8249697B2, “Cardiac output monitor with compensation for tissue perfusion” (Alfred E. Mann Institute for Biomedical Engineering at the …, priority 2008, dated 2012).

The conditions of series [1]: metabolites are not fluorescent; cited from earlier work.
Another series relates to blood proteins. Particulars: stated as typical; cited from earlier work.
A short description of series [2]: disappearance of ICG from blood after high dose intravenous injection (calibration sequence). It is filed as in vivo, New Zealand White rabbits. Conditions: rabbit, 1 mg ICG intravenously, metabolized by the liver. From the text:
Experiments have been performed in New Zealand White rabbits (2.8-3.5 Kg) anesthetized with halothane and artificially ventilated with an oxygen-enriched gas mixture (FiO2˜0.4) to achieve a SaO2 above 99% and an end-tidal CO2 between 28 and 32 mm Hg (FIG. 4). The left femoral artery was cannulated for measurement of the arterial blood pressure throughout the procedure. A small catheter was positioned in the left brachial vein to inject the indicator, ICG. Body temperature was maintained with a heat lamp.
Calibration of the transcutaneous fluorescence intensity measured at the level of the animals' ear as a function of ICG concentration in blood was performed as follows. […]
As the liver metabolizes ICG, the blood ICG concentration decreases back to 0 in about 20 minutes. […] The fluorescence intensity of the blood in the cuvette was converted to a measurement of concentration using the known standard curve of fluorescence intensity versus ICG concentration established for the cuvette. ICG fluorescence was measured at the level of the ear at the exact time of the blood sample withdrawal. […]
For the range of concentrations used in these studies, ICG concentration and transcutaneous fluorescence were linearly related. The calibration line passes through the origin of the axes since there is no measured fluorescence when the ICG blood concentration is 0.

Take `CC1(C)C(/C=C/C=C/C=C/C=C2\N(CCCCS(=O)(=O)O)c3ccc4ccccc4c3C2(C)C)=[N+](CCCCS(=O)(=O)[O-])c2ccc3ccccc3c21` [ICG, indocyanine green]: the “stability in aqueous solution” value in series [1] is “breaks down quickly”. The “fraction of ICG injected in the bloodstream that binds to blood proteins” value with blood proteins is listed as “more than 95%”. Moreover, the “time for blood ICG concentration to decrease back to 0” value in series [2] is “about 20 minutes”.
